According to patent US20250367157A1, “COMPOSITION FOR USE IN THE TREATMENT OF DISEASES ASSOCIATED WITH DYSFUNCTION OF MITOCHONDRIAE” (IUF LEIBNIZ-INSTITUT FÜR UMWELTMEDIZINISCHE FORSCHUNG GMBH, priority 2022, published 2025):

Key:
[1] = test system: primary XPA-deficient human fibroblasts; assay: RNA isolation and real-time PCR, XPA fibroblasts; type: cell-based; details: 24 hours after UVB, Choline 100 mM, alone or combined; for RNA levels of PKM1, PKM2, MT-ATP6, MT-ATP8, SOD2, AKR1B1, HSPA2, TFPI2: Acetate 10 mM, FIG. 3; for RNA levels of CRYAB, HSPA2, ISYNA1: DMKG 10 mM, FIG. 9
Description: (§1) 200 ng of purified RNA were used for cDNA synthesis using SuperScript reverse transcriptase (Thermo Fisher). Expression levels of the genes PKM1, PKM2, MT-ATP6, MT-ATP8, MT-ND1, MT-ND3, TFAM, SOD2, AKR1B1, HSPA2 and TFPI2 were analyzed using a CFX Connect Real-Time PCR detection system and SYBR Green Supermix (both from Bio-Rad). Expression levels of the genes mentioned above were normalized in comparison to the housekeeper genes 18S (for experiments with XPA-deficient fibroblasts) or β2-microglobulin (for experiments with CSB-deficient fibroblasts).
200 ng of purified RNA were used for cDNA synthesis using SuperScript reverse transcriptase (Thermo Fisher). Expression levels of selected genes were analyzed using a CFX Connect Real-Time PCR detection system and SYBR Green Supermix (both from Bio-Rad). Expression levels of the selected genes were normalized in comparison to the housekeeper gene 18S.

[2] = test system: primary XPA-deficient human fibroblasts; assay: Protein extraction and Western blot, XPA fibroblasts; type: cell-based; details: Choline 100 mM alone or with Acetate 10 mM; FIG. 4 A
Description: Histone samples were stored at −80° C.

[3] = test system: primary normal human dermal fibroblasts (NHF); assay: ATP immunofluorescence microscopy, NHF; type: cell-based; details: Choline 100 mM, Acetate 10 mM, alone or combined
Description: Primary NHF and XPA-deficient fibroblasts were grown on chamber glass slides (Sarstedt) in growth medium containing 15% FCS. 48 hours before UVB irradiation, medium was removed, cells were washed with PBS and received growth medium containing 1% FCS. 24 hours later, medium was removed, and cells received growth medium (1% FCS) containing Choline (100 mM) and Acetate (10 mM). Control cells received normal growth medium supplied with 1% FCS. 24 hours later, medium was removed, cells were washed with PBS and were irradiated with UVB in fresh PBS. Unirradiated control (Sham) cells grown in a second chamber were treated essentially equal but were not exposed to UVB. After irradiation, PBS was removed, and cells were treated with Choline/Acetate or control growth medium. 24 hours later, medium was removed, cells were washed with PBS and fixed with 2% paraformaldehyde. For immunofluorescence staining of ATP and the ATP5A subunit of the mitochondrial ATP synthase, cells were permeabilized with PBS containing 0.1% Triton X-100 and incubated with an anti-ATP antibody raised in rabbit (MyBioSource) and an anti-ATP5A antibody raised in mouse (Abcam) overnight at 4° C. […] Cells were incubated with anti-mouse and anti-rabbit secondary antibodies either labeled with a green (Alexa Fluor 488, Thermo Fisher) or with a red fluorescence dye (Alexa Fluor 594, Thermo Fisher) for 2 hours at room temperature. […] Slides were mounted using an anti-fade mounting medium (Southern Biotech) and analyzed with a fluorescence microscope (Zeiss).
As described herein above for FIG. 2 B, further primary normal human dermal fibroblasts (NHF) and XPA-deficient fibroblasts were grown on chamber glass slides (Sarstedt) in growth medium containing 15% FCS. […] Cells were incubated with anti-mouse and anti-rabbit secondary antibodies either labeled with a green (Alexa Fluor 488, Thermo Fisher) or with a red fluorescence dye (Alexa Fluor 594, Thermo Fisher) for 2 hours at room temperature. […] Slides were mounted using an anti-fade mounting medium (Southern Biotech) and analyzed with a fluorescence microscope (Zeiss). […]

[4] = test system: primary XPA-deficient human fibroblasts; details: Choline 100 mM, Acetate 10 mM, alone or combined; FIG. 2 B, FIG. 7 B
Description: Medium was removed and cells received growth medium (1% FCS) containing either Choline (100 mM), Acetate (10 mM), or a combination of Choline (100 mM) and Acetate (10 mM) (Chol/Ac). Control cells received normal growth medium supplied with 1% FCS. 24 hours later, cells received fresh medium containing the respective compounds and were incubated for another 24 hours. The cells were washed with PBS and fixed with 2% paraformaldehyde. For immunofluorescence staining of ATP and the ATP5A subunit of the mitochondrial ATP synthase, cells were permeabilized with PBS containing 0.1% Triton X-100 and incubated with an anti-ATP antibody raised in rabbit (MyBioSource) and an anti-ATP5A antibody raised in mouse (Abcam) overnight at 4° C. Next day, antibodies were removed, and cells were washed three times with PBS containing 0.1% Triton X-100. Cells were incubated with anti-mouse and anti-rabbit secondary antibodies either labeled with a green (Alexa Fluor 488, Thermo Fisher) or with a red fluorescence dye (Alexa Fluor 594, Thermo Fisher) for 2 hours at room temperature. Antibodies were removed and cells were washed three times with PBS containing 0.1% Triton X-100. Slides were mounted using an anti-fade mounting medium (Southern Biotech) and analyzed with a fluorescence microscope (Zeiss).

[5] = test system: primary CSB-deficient human fibroblasts; details: Example 2.1; Sham and UVB; Choline 100 mM, Acetate 10 mM, alone or combined; FIG. 11
Description: As described herein above for FIG. 2 B, primary NHF and CSB-deficient fibroblasts were grown on chamber glass slides (Sarstedt) in growth medium containing 15% FCS. 48 hours before UVB irradiation, medium was removed, cells were washed with PBS and received growth medium containing 1% FCS. 24 hours later, medium was removed, and cells received growth medium (1% FCS) containing either Choline (100 mM), Acetate (10 mM), or a combination of Choline (100 mM) and Acetate (10 mM) (Chol/Ac). Control cells received normal growth medium supplied with 1% FCS. 24 hours later, medium was removed, cells were washed with PBS and were irradiated with UVB (FIG. 11 B) in fresh PBS. Unirradiated control (Sham) cells (FIG. 11 A) grown in a second chamber were treated essentially equal but were not exposed to UVB. After irradiation, PBS was removed and cells were treated again with the respective compounds or control growth medium. 24 hours later, medium was removed, cells were washed with PBS and fixed with 2% paraformaldehyde. […] Cells were incubated with anti-mouse and anti-rabbit secondary antibodies either labeled with a green (Alexa Fluor 488, Thermo Fisher) or with a red fluorescence dye (Alexa Fluor 594, Thermo Fisher) for 2 hours at room temperature. […] Slides were mounted using an anti-fade mounting medium (Southern Biotech) and analyzed with a fluorescence microscope (Zeiss).

[6] = test system: primary XPA-deficient human fibroblasts; assay: Apoptosis measurement (annexin V/propidium iodide flow cytometry); type: cell-based; details: Cisplatin 50 μM, 24 hours, XPA Control vs XPA Cisplatin; FIG. 1 B
Description: Primary human fibroblasts obtained from Xeroderma pigmentosum group A (XPA) patients and Cockayne Syndrome group B (CSB) patients were purchased from Coriell Institute (USA). Normal human fibroblasts (NHF) were isolated from skin samples obtained from healthy age-matched donors undergoing skin surgery. Cells were grown in Dulbecco's Modified Eagle Medium (DMEM) supplemented with 1% glutamine, antibiotics/antimycotics (growth medium) and 15% fetal calf serum (FCS) at 37° C. in a humidified atmosphere containing 5% CO2. For experiments, cells were detached from culture flasks by treatment with 0.05% trypsin solution (5 min/37° C.). After blocking trypsin activity by adding growth medium with 10% FCS, cells were spun down, resuspended in growth medium (15% FCS) and plated in appropriate culture dishes. Cells were allowed to grow until they reached around 80% confluency. […] Next day, cells were treated with the compounds Choline Chloride (here called Choline), or Sodium Acetate (here called Acetate), or both of them (both compounds were purchased from Sigma-Aldrich). […] Cells were analyzed by using a FACSCanto flow cytometry system. The percentage of early apoptotic cells defined as annexin V (+) and propidium iodide (-) was determined.

[7] = test system: primary CSB-deficient human fibroblasts; assay: RNA isolation and real-time PCR, CSB fibroblasts; type: cell-based; details: Choline 100 mM, alone or combined
Description: as §1
200 ng of purified RNA were used for cDNA synthesis using SuperScript reverse transcriptase (Thermo Fisher). Expression levels of selected genes were analyzed using a CFX Connect Real-Time PCR detection system and SYBR Green Supermix (both from Bio-Rad).

Row | Structure (SMILES) | RNA levels of PKM1, PKM2, MT-ATP6, MT-ATP8, SOD2, AKR1B1, HSPA2, TFPI2 [1] | RNA levels of CRYAB, HSPA2, ISYNA1 [1] | cellular ATP levels (anti-ATP antibody staining) ([3]; Example 2, FIG. 2 B, FIG. 7 A) | cellular ATP levels (anti-ATP antibody staining) [4] | further results
1 | C[N+](C)(C)CCO.[Cl-] [Choline, Choline Chloride] | induced gene expression | induced gene expression of CRYAB, HSPA2 and ISYNA1 | accumulation of ATP in the cellular nuclei | accumulation of ATP in the cellular nuclei | GLUT1 protein level [2]: equally increased; cellular ATP levels (anti-ATP antibody staining) ([3]; Example 2.1, Sham and UVB, FIG. 11): accumulation of ATP in the cellular nuclei; cellular ATP levels (anti-ATP antibody staining) [5]: accumulation of ATP in the cellular nuclei
2 | N.N.[Cl][Pt][Cl] [Cisplatin] |  |  |  |  | apoptosis induction by the DNA-damaging agent alone [6]: increased apoptosis (cell death) induction
3 | CCCCCCC(=O)OCC(COC(=O)CCCCCC)OC(=O)CCCCCC [Triheptanoin] |  |  |  |  | RNA levels of AKR1B1, SOD2 ([7]; 24 hours after UVB, Triheptanoin 100 μM, FIG. 13): only little or even no positive effect on the RNA level of AKR1B1, and SOD2
4 | COC(=O)CCC(=O)C(=O)OC [DMKG, Dimethyl-α-Ketoglutarate] |  | only little (or even no) effect on most RNA levels |  |  | 
5 | CC(=O)[O-].[Na+] [Acetate, Sodium Acetate] | does not increase RNA levels after UVB |  | no effect on cellular ATP abundance when given alone | no effect on cellular ATP abundance when given alone | RNA levels of SOD2, HSPA2 ([7]; 48 hours after UVB, Acetate 10 mM, FIG. 12): only little or even no effect on the RNA levels of the depicted genes
